Data: publication PMC10831447 (Molecular Cancer Therapeutics, 2023)

Legend:
[1] = system: 25 RCC PDX models; experiment: RCC PDX in vivo study, all models; parameters: species or system mouse
[2] = system: A549 wild-type; experiment: Colony formation assay; type: cell-based, human; details: 1E−05, 2.5E−06, 5E−07 mol/L
[3] = cited from earlier work
[4] = system: A549 p53 KO; experiment: Colony formation assay; type: cell-based, human; details: isogenic A549 TP53 KO; 1E−05, 2.5E−06, 5E−07 mol/L
[5] = system: A549 p53 KO; experiment: Cell-cycle analysis by FACS; type: cell-based, human; details: A549 TP53 KO; M8891 1E−06 mol/L, nutlin-3A 3E−06 mol/L
[6] = system: A549 wild-type; experiment: Cell-cycle analysis by FACS; type: cell-based, human; details: A549 parental; 24 hours; M8891 1E−06 mol/L, nutlin-3A 3E−06 mol/L

CCN(CC)CCNC(=O)c1c(C)[nH]c(/C=C2\C(=O)Nc3ccc(F)cc32)c1C [Sunitinib]
integrated survival analysis based on RTV changes (AUC) ([1]; across all 25 PDX models): clear survival benefit | antitumor activity in cohort of 25 RCC PDX models ([1]; dose and schedule tested in this study): moderate

CO[C@@H]1[C@H](OC(=O)NC(=O)CCl)CC[C@]2(CO2)[C@H]1[C@@]1(C)O[C@@H]1CC=C(C)C [TNP-470]
colony formation [2]: blocked | elimination [3]: rapid elimination | side effects [3]: neurologic side effects | colony formation [4]: resistant

COc1ccc(C2=N[C@@H](c3ccc(Cl)cc3)[C@@H](c3ccc(Cl)cc3)N2C(=O)N2CCNC(=O)C2)c(OC(C)C)c1 [nutlin-3A]
colony formation [2]: significantly reduced colony formation | shift in cell-cycle distribution [5]: not observed | cell-cycle distribution [6]: more prominent arrest in G2–M | colony formation [4]: resistant
